Values quoted from earlier work as cited in patent US20010007758A1, “Treatment of multiple sclerosis using COP-1 and Th2-enhancing cytokines” (Autoimmune, Inc., priority 1998, published 2001).

B1: MBP: myelin basic protein, a component of myelin in the central nervous system (protein, UniProt P02686 1-304, looked up)
Myelin basic protein: MGNHAGKRELNAEKASTNSETNRGESEKKRNLGELSRTTSEDNEVFGEADANQNNGTSSQDTAVTDSKRTADPKNAWQDAHPADPGSRPHLIRLFSRDAPGREDNTFKDRPSESDELQTIQEDSAATSESLDVMASQKRPSQRHGSKYLATASTMDHARHGFLPRHRDTGILDSIGRFFGGDRGAPKRGSGKDSHHPARTAHYGSLPQKSHGRTQDENPVVHFFKNIVTPRTPPPSQGKGRGLSLSRFSWGAEGQRPGFGYGGRASDYKSAHKGFKGVDAQGTLSKIFKLGGRDSRSGSPMARR
B2: IL-4: interleukin-4, a Th2-enhancing cytokine (protein, UniProt P05112 25-153, looked up)
Interleukin-4: HKCDITLQEIIKTLNSLTEQKTLCTELTVTDIFAASKNTTEKETFCRAATVLRQFYSHHEKDTRCLGATAQQFHRHKQLIRFLKRLDRNLWGLAGLNSCPVKEANQSTLENFLERLKTIMREKYSKCSS

What was measured:
MS = conditions: daily subcutaneous injections of 20 mg
EAE [1] = conditions: oral administration to rats
T cell = conditions: oral administration to rats
MBP-specific T cells = conditions: experiments in mice
[2] = tested on: T suppressor cells specific for MBP
[3] = tested on: experimental allergic encephalitis (EAE); conditions: in vivo
EAE [4] = conditions: oral feeding; EAE induced with 0.4 mg mouse MBP; monitored 35 days

Molecule	Expanded Disability Status Scale (MS)	annualized relapse rate, lower in treated patients (MS)	proportion of patients that did not have a relapse in clinical disease (MS)	severity and incidence of EAE (EAE [1])	T cell proliferative responses (T cell)	TH1 cytokine production (T cell)	effect on MBP-specific T cells involved in destruction of central nervous system tissue in EAE (MBP-specific T cells)	induction of T suppressor cells specific for MBP [2]	encephalitogenicity (causes EAE when injected) [3]	delay in disease onset (EAE [4])
glatiramer acetate [COP-1]	significant improvement	29%	34%	suppressed	inhibited	inhibited	specifically inhibits	induce T suppressor cells	not encephalitogenic	–
B1	–	–	–	–	–	–	–	–	highly encephalitogenic	22 days
B2	–	–	–	–	–	–	–	–	–	21 days
